Measured values reported in PMC7311426, “An amphipathic peptide with antibiotic activity against multidrug-resistant Gram-negative bacteria” (Nature Communications, 2020).
Residues, ends and D or L forms follow the SMILES beside them.

Assay: Intravenous pharmacokinetics
Settings: for Nonlin fit of XY (Prism), mouse i.v. bolus / level at 1.23 h / level at 2 h / level at 3 h / level at 4 h / level at 8 h / level at 0.08 h / level at 0.5 h / level at 1 h / level at 24 h: Cross species PK; for Nonlin fit of XY (Prism), mouse i.v. bolus: fitted curve; for level at 1.23 h / level at 2 h / level at 3 h / level at 4 h / level at 8 h / level at 0.08 h / level at 0.5 h / level at 1 h / level at 24 h: concentration (Fig 6 source data)
Protocol: The studies were performed at Fidelta Ltd, Croatia (mice), under review by the institutional ethics committee (CARE-Zg), and Covance Laboratories UK and Muenster Germany (cynomolgus monkey and minipig) in accordance with the requirements of the Animals (Scientific Procedures) Act 1989 and a maintained local ethical review. All studies were contracted by Adenium Biotech ApS. Mice were housed in polysulfone cages with an acclimatization period of 7 days prior to experiments with air temperature maintained at 22 °C with 55% humidity and light–dark cycles of 12 h light. Cynomolgus monkeys of age range 4–7 years were selected, tested for health, acclimatized for 2 weeks, and housed in single-animal climate controlled stainless-steel cages with a minimum of 8 air changes per hour with air temperature at 19–25 °C and relative humidity 40–70%, and light–dark cycles of 12 h light. Minipigs of age range 4–6 months were selected, tested for health, acclimatized for 2 weeks, and housed in single-animal pens with 15–20 air changes per hour with air temperature at 22–26 °C with light–dark cycles of 12 h light.
Mouse i.v. injection: A formulation of AA139 in Ringer’s acetate pH 6.0 (1 mg mL^−1) was administered to male CD1 mice (Charles River, Italy) at 10 mg kg^−1 as a 400 μL slow injection into the lateral tail vein. Blood samples were collected from the jugular vein at eight timepoints (n = 3 mice): 0.08, 0.25, 0.5, 1, 2, 4, 8, and 24 h. AA139 was quantified in plasma using solid phase extraction (SPE) followed by liquid chromatography with tandem mass spectrometric detection (LC–MS/MS). Pharmacokinetic analysis was performed using Phoenix WinNonlin 6.2. (Pharsight Corporation) software using individual animal data, non-compartmental sparse analysis, and the actual dose as determined from formulation analysis by UPLC.
Mouse, monkey, and minipig i.v. 2-h infusion: AA139 formulated in Ringer’s acetate was administered intravenously to CD1 mice, cynomolgus monkeys (Macaca fascicularis) and Göttingen A/S minipigs (Ellegaard Göttingen, Denmark) by continuous infusion over 2 h (minipig under anesthesia). Individual dose volumes were based on individual body weight. Blood samples were collected at 0.5, 1, 2, 3, 4, 8, 10, and 12 h after the start of the infusion (n = 6 mice, male and female combined; n = 2 monkeys, one male and one female; n = 2 minipigs, one male and one female). Bioanalytical analysis was performed by SPE followed by LC–MS/MS. The method was validated for an AA139 concentration range of 43.4–21,700 ng mL^−1. Pharmacokinetic parameters were calculated by standard non-compartmental analysis (NCA) using Phoenix WinNonlin version 6.2. The studies were conducted in compliance with Good Laboratory Practice (GLP) regulations.

[1] = both, CD1, mouse, in vivo, iv, 10 mg kg-1
[2] = both, CD1, mouse, in vivo, iv, mouse 2h i.v. infusion, replicate 1
[3] = both, CD1, mouse, in vivo, iv, mouse 2h i.v. infusion, replicate 2
[4] = both, CD1, mouse, in vivo, iv, mouse 2h i.v. infusion, replicate 3
[5] = male, CD1, mouse, in vivo, iv, 10 mg kg-1
[6] = male, CD1, mouse, in vivo, iv, 10 mg/kg, mouse i.v. bolus, replicate 1
[7] = male, CD1, mouse, in vivo, iv, 10 mg/kg, mouse i.v. bolus, replicate 2
[8] = male, CD1, mouse, in vivo, iv, 10 mg/kg, mouse i.v. bolus, replicate 3

With CC(C)[C@@H]1NC(=O)[C@H](Cc2ccc(O)cc2)NC(=O)[C@H](Cc2c[nH]c3ccccc23)NC(=O)[C@@H](NC(=O)[C@H](Cc2ccccc2)NC(=O)CN)CSSC[C@@H](C(=O)N[C@@H](CC(N)=O)C(=O)O)NC(=O)[C@H](CCCNC(=N)N)NC(=O)[C@H](CCCNC(=N)N)NC(=O)[C@H](Cc2ccc(O)cc2)NC(=O)[C@@H]2CSSC[C@H](NC1=O)C(=O)N[C@@H](C)C(=O)N[C@@H](CCCNC(=N)N)C(=O)N[C@@H](CCCNC(=N)N)C(=O)N[C@@H](CC(N)=O)C(=O)NCC(=O)N[C@@H](C)C(=O)N[C@@H](CCCNC(=N)N)C(=O)N[C@@H](C(C)C)C(=O)N2 [AA139] (HELM PEPTIDE1{G.F.C.W.Y.V.C.A.R.R.N.G.A.R.V.C.Y.R.R.C.N}$PEPTIDE1,PEPTIDE1,3:R3-20:R3|PEPTIDE1,PEPTIDE1,7:R3-16:R3$$$V2.0) the “Nonlin fit of XY (Prism), mouse i.v. bolus” value (“Nonlin fit of XY (Prism)” for short) (Time 19.1952 h) was 546.556, the “Nonlin fit of XY (Prism)” value (Time 20.1802 h) was 523.855 and the “Nonlin fit of XY (Prism)” value (Time 23.952 h) was 452.817. The AUC(0-inf) [1] was 14000 ng·h/mL, the half-life [1] was 2.9 h and the level at 1.23 h [2] was 4540 ng/mL. It also gave a level at 1.23 h [3] of 4960 ng/mL, a level at 1.23 h [4] of 4090 ng/mL and a level at 2 h [2] of 8160 ng/mL. For the same compound, the level at 2 h [3] was 8010 ng/mL, the level at 2 h [4] was 3870 ng/mL and the level at 3 h [2] was 3530 ng/mL. For the same compound, the level at 3 h [3] was 3750 ng/mL, the level at 3 h [4] was 1420 ng/mL and the level at 4 h [2] was 1350 ng/mL. For the same compound, the level at 4 h [3] was 1140 ng/mL, the level at 4 h [4] was 1490 ng/mL and the level at 8 h [2] was 110 ng/mL. The level at 8 h [3] was 216 ng/mL, the level at 8 h [4] was 178 ng/mL and the “Clearance relative to rate of liver blood flow” value (i.v., mice, cynomolgus monkeys and minipigs) was ~ 20%. The half-life (i.v., mice, cynomolgus monkeys and minipigs, bi-exponential elimination) was 2 to 4 h, the AUC(0-inf) [5] was 24900 ng·h/mL and the Vd [5] was 0.91 L/kg. For the same compound, the half-life [5] was 3.2 h, the Cmax (male, CD1, mouse, in vivo, iv, 10 mg/kg) was 16200 ng/mL and the level at 0.08 h [6] was 14900 ng/mL. For the same compound, the level at 0.08 h [7] was 10800 ng/mL, the level at 0.08 h [8] was 13200 ng/mL and the level at 0.5 h [6] was 8770 ng/mL. The level at 0.5 h [7] was 8380 ng/mL, the level at 0.5 h [8] was 6290 ng/mL and the level at 1 h [6] was 7140 ng/mL. For the same compound, the level at 1 h [7] was 5150 ng/mL, the level at 1 h [8] was 3780 ng/mL and the level at 2 h [6] was 5140 ng/mL. For the same compound, the level at 2 h [7] was 2960 ng/mL, the level at 2 h [8] was 3850 ng/mL and the level at 4 h [6] was 1600 ng/mL. It also gave a level at 4 h [7] of 1470 ng/mL, a level at 4 h [8] of 1500 ng/mL and a level at 8 h [6] of 402 ng/mL. For the same compound, the level at 8 h [7] was 388 ng/mL, the level at 8 h [8] was 472 ng/mL and the level at 24 h [6] was 48 ng/mL. The level at 24 h [7] was 32 ng/mL, the level at 24 h [8] was 31 ng/mL and the “Cross species PK, concentration (Fig 6 source data)” value (“Cross species PK, concentration” for short) (mouse 2h i.v. infusion, time 10 h, replicate 1) was 88. For the same compound, the “Cross species PK, concentration” value (mouse 2h i.v. infusion, time 10 h, replicate 2) was 124, the “Cross species PK, concentration” value (mouse 2h i.v. infusion, time 10 h, replicate 3) was 134 and the “Cross species PK, concentration” value (mouse 2h i.v. infusion, time 12 h, replicate 1) was 72.4. The “Cross species PK, concentration” value (mouse 2h i.v. infusion, time 12 h, replicate 2) was 93.8 and the “Cross species PK, concentration” value (mouse 2h i.v. infusion, time 12 h, replicate 3) was 62.7.
